From paper PMC9898036, “VIP152 is a selective CDK9 inhibitor with pre-clinical in vitro and in vivo efficacy in chronic lymphocytic leukemia” (Leukemia, 2022)

What was measured:
Experiment in all cases: DiscoverX KINOMEscan kinase profiling (468 assays)
Format in all cases: binding
human kinome [1] = target: human kinome (Homo sapiens, UniProt P49761); conditions: CLK3; 100 nM; read-out: Percent Control
In short: (§1)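 VIP152 was run in DMSO, alongside a DMSO control. Readout was qPCR of DNA-tagged kinase still bound to bead-immobilized biotinylated kinase ligands after compound competition.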

human kinome [2] = target: human kinome (Homo sapiens, UniProt Q9UKI8); conditions: kinase TLK1 (Entrez TLK1); compound concentration 1000 nM; read-out: Percent Control
In short: as §1

human kinome [3] = target: human kinome (Homo sapiens, UniProt Q9H3Y6); conditions: kinase SRMS (Entrez SRMS); compound concentration 1000 nM; read-out: Percent Control
In short: as §1

human kinome [4] = target: human kinome (Homo sapiens, UniProt P54764); conditions: EPHA4; 100 nM; read-out: Percent Control
In short: as §1

human kinome [5] = target: human kinome (Homo sapiens, UniProt Q6ZN16); conditions: MAP3K15; 100 nM; read-out: Percent Control
In short: as §1

human kinome [6] = target: human kinome (Homo sapiens, UniProt Q00532); conditions: CDKL1; 100 nM; read-out: Percent Control
In short: as §1

human kinome [7] = target: human kinome (Homo sapiens, UniProt O43283); conditions: LZK (Entrez MAP3K13); 100 nM; read-out: Percent Control
In short: as §1

human kinome [8] = target: human kinome (Homo sapiens, UniProt Q16816); conditions: read-out: Percent Control
In short: as §1

human kinome [9] = target: human kinome (Homo sapiens, UniProt P0C1S8); conditions: kinase WEE2 (Entrez WEE2); compound concentration 1000 nM; read-out: Percent Control
In short: as §1

human kinome [10] = target: human kinome (Homo sapiens, UniProt Q06187); conditions: BTK; 100 nM; read-out: Percent Control
In short: as §1

human kinome [11] = target: human kinome (Homo sapiens, UniProt O15197); conditions: EPHB6; 100 nM; read-out: Percent Control
In short: as §1

human kinome [12] = target: human kinome (Homo sapiens, UniProt P45984); conditions: JNK2 (Entrez MAPK9); 100 nM; read-out: Percent Control
In short: as §1

human kinome [13] = target: human kinome (Homo sapiens, UniProt P42336, E545A); conditions: read-out: Percent Control
In short: as §1

human kinome [14] = target: human kinome (Homo sapiens, UniProt P57078); conditions: kinase RIPK4 (Entrez RIPK4); compound concentration 1000 nM; read-out: Percent Control
In short: as §1

human kinome [15] = target: human kinome (Homo sapiens, UniProt Q9UM73, C1156Y); conditions: ALK(C1156Y); 100 nM; read-out: Percent Control
In short: as §1

human kinome [16] = target: human kinome (Homo sapiens, UniProt Q13705); conditions: ACVR2B; 100 nM; read-out: Percent Control
In short: as §1

human kinome [17] = target: human kinome (Homo sapiens, UniProt Q15831); conditions: LKB1 (Entrez STK11); 100 nM; read-out: Percent Control
In short: as §1

human kinome [18] = target: human kinome (Homo sapiens, UniProt P78368); conditions: CSNK1G2; 100 nM; read-out: Percent Control
In short: as §1

human kinome [19] = target: human kinome (Homo sapiens, UniProt Q9UL54); conditions: kinase TAOK2 (Entrez TAOK2); compound concentration 1000 nM; read-out: Percent Control
In short: as §1

human kinome [20] = target: human kinome (Homo sapiens, UniProt P07948); conditions: LYN; 100 nM; read-out: Percent Control
In short: as §1

human kinome [21] = target: human kinome (Homo sapiens, UniProt Q9Y243); conditions: AKT3; 100 nM; read-out: Percent Control
In short: as §1

human kinome [22] = target: human kinome (Homo sapiens, UniProt Q9BQI3); conditions: EIF2AK1; 100 nM; read-out: Percent Control
In short: as §1

human kinome [23] = target: human kinome (Homo sapiens, UniProt Q92918); conditions: HPK1 (Entrez MAP4K1); 100 nM; read-out: Percent Control
In short: as §1

human kinome [24] = target: human kinome (Homo sapiens, UniProt P00533, G719C); conditions: EGFR(G719C); 100 nM; read-out: Percent Control
In short: as §1

human kinome [25] = target: human kinome (Homo sapiens, UniProt Q9NQU5); conditions: read-out: Percent Control
In short: as §1

human kinome [26] = target: human kinome (Homo sapiens, UniProt P53778); conditions: read-out: Percent Control
In short: as §1

human kinome [27] = target: human kinome (Homo sapiens, UniProt P11309); conditions: read-out: Percent Control
In short: as §1

human kinome [28] = target: human kinome (Homo sapiens, UniProt Q08881); conditions: ITK; 100 nM; read-out: Percent Control
In short: as §1

human kinome [29] = target: human kinome (Homo sapiens, UniProt Q9UM73, L1196M); conditions: ALK(L1196M); 100 nM; read-out: Percent Control
In short: as §1

human kinome [30] = target: human kinome (Homo sapiens, UniProt P00533, DEL746-750); conditions: EGFR(E746-A750del); 100 nM; read-out: Percent Control
In short: as §1

human kinome (Homo sapiens, UniProt P53778), sequence (P53778 whole entry): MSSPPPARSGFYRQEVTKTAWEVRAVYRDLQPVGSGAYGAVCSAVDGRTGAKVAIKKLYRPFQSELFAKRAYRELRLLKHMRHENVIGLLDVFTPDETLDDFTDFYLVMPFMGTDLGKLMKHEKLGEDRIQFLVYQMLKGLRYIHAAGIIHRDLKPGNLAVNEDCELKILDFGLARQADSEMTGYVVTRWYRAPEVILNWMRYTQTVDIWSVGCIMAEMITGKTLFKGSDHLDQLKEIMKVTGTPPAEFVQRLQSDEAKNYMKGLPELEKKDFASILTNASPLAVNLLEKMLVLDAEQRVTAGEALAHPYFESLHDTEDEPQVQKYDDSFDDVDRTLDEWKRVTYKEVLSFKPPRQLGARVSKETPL
human kinome (Homo sapiens, UniProt P11309), sequence (P11309 whole entry): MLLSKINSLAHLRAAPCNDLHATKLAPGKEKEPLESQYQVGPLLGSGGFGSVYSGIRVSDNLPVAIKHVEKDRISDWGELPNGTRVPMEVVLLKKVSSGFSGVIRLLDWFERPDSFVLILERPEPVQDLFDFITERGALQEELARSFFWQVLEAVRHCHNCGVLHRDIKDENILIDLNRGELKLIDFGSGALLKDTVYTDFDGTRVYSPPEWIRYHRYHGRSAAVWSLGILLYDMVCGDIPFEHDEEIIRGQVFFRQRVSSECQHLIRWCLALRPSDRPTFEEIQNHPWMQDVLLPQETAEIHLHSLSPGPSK
human kinome (Homo sapiens, UniProt P42336, E545A), sequence (P42336 whole entry E545A): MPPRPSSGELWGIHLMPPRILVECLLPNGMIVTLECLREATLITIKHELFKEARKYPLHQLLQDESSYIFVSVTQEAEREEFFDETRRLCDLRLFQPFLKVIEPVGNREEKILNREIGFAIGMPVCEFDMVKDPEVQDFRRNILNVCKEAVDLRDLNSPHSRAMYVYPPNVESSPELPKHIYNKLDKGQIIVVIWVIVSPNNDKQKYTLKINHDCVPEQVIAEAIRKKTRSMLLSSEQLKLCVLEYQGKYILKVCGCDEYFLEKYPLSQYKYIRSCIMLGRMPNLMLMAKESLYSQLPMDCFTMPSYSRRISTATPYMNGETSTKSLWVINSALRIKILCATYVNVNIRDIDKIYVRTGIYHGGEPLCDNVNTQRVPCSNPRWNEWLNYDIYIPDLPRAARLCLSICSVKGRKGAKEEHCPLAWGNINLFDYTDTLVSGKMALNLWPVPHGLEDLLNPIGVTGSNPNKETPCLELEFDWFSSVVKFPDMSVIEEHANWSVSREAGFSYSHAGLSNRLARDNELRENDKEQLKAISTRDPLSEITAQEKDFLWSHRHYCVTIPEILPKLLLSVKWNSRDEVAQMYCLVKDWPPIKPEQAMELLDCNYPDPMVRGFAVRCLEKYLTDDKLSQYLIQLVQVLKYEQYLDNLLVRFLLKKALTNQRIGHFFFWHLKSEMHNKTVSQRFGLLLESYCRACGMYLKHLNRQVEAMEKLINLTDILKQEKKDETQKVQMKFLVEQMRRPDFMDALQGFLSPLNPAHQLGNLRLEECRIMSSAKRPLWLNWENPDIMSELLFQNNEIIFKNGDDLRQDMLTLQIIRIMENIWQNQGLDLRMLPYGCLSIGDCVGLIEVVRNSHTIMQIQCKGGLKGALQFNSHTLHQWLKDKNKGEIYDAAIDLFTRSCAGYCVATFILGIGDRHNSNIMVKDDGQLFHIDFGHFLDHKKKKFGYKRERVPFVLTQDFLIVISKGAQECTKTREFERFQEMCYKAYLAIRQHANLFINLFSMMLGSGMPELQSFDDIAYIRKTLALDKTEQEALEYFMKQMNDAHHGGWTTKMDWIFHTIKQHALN
human kinome (Homo sapiens, UniProt Q9NQU5), sequence (Q9NQU5 whole entry): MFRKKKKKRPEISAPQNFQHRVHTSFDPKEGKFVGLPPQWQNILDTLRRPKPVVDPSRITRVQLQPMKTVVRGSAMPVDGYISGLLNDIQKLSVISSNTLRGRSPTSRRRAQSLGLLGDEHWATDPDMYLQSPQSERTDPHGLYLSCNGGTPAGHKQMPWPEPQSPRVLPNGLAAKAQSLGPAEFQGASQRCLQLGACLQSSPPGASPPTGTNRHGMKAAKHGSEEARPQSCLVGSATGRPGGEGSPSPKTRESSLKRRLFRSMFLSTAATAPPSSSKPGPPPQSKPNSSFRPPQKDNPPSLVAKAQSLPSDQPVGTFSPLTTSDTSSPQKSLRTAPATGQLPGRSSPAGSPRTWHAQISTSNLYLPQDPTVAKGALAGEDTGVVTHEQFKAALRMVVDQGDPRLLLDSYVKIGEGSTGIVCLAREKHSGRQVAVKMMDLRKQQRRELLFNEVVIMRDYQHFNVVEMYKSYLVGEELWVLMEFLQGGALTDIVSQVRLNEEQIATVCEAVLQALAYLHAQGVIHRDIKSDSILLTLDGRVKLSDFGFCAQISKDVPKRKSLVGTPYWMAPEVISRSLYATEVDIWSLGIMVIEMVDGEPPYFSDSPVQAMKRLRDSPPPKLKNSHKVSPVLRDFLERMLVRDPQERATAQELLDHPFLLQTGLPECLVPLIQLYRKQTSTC
human kinome (Homo sapiens, UniProt Q16816), sequence (Q16816 whole entry): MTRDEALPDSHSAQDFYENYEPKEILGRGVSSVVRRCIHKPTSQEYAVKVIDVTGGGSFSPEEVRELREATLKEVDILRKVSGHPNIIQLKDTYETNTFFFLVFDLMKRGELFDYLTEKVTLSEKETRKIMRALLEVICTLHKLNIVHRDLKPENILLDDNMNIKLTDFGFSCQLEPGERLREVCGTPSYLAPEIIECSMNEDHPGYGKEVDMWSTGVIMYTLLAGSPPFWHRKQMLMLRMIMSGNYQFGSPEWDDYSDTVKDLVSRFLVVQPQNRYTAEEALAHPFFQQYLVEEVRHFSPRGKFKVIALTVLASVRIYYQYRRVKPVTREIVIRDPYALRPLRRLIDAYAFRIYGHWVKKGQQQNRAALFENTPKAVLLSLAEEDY
human kinome (Homo sapiens, UniProt Q9BQI3), sequence (Q9BQI3 whole entry): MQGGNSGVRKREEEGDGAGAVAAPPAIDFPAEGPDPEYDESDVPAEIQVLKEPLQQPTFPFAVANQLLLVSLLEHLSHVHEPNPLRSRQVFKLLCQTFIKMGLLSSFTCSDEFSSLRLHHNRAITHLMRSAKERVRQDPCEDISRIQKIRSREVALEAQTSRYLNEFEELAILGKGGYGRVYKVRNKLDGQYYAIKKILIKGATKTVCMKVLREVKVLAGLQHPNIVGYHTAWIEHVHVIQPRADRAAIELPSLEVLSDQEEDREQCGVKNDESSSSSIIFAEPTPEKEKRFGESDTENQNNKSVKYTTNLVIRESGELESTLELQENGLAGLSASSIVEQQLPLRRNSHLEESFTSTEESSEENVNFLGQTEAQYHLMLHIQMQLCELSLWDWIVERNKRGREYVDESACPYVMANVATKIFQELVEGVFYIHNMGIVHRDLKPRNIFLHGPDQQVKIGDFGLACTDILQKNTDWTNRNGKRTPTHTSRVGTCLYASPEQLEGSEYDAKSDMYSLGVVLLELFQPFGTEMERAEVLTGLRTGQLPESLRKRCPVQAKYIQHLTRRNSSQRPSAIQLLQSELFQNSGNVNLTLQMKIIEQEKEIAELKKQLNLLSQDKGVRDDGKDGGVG
human kinome (Homo sapiens, UniProt P78368), sequence (P78368 whole entry): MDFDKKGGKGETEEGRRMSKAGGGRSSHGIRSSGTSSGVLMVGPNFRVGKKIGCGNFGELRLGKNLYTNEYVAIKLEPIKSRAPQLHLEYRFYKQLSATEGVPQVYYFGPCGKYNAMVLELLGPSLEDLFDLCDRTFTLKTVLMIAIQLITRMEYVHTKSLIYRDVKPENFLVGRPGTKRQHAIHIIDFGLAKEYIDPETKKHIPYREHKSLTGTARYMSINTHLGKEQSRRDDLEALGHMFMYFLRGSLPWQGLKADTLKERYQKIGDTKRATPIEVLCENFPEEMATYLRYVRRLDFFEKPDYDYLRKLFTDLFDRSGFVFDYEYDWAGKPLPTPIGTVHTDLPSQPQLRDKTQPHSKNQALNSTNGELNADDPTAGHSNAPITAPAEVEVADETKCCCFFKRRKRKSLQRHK
human kinome (Homo sapiens, UniProt Q06187), sequence (Q06187 whole entry): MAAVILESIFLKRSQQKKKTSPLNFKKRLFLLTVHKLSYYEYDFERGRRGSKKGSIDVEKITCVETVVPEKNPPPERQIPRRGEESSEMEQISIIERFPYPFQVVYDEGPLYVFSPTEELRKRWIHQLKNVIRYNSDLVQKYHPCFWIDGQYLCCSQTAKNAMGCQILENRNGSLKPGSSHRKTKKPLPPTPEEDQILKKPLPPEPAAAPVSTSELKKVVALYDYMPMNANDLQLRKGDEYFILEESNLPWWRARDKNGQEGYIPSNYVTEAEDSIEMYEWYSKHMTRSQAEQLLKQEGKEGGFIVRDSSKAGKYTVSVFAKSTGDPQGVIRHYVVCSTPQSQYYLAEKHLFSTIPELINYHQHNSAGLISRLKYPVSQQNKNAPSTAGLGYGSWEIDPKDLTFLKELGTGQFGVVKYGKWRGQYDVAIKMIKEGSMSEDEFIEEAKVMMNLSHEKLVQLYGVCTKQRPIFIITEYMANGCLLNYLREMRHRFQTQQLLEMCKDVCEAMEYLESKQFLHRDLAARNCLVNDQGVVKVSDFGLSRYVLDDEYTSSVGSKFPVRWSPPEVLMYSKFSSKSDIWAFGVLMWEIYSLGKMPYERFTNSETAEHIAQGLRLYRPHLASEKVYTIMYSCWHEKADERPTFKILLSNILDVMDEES
human kinome (Homo sapiens, UniProt Q13705), sequence (Q13705 19-512): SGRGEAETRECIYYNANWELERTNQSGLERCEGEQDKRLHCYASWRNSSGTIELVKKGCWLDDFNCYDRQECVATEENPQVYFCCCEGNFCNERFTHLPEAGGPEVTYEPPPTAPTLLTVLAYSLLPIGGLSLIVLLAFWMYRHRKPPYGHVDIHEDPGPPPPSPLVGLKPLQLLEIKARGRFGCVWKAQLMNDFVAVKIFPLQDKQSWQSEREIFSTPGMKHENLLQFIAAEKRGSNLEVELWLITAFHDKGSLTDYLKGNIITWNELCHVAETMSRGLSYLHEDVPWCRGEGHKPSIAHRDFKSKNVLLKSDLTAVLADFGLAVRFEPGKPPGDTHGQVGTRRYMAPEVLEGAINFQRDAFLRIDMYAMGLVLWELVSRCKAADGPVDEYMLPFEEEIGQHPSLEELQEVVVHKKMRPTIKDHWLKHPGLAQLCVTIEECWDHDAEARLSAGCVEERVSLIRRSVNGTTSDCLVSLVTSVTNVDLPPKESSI

With `COc1cc(F)ccc1-c1cc(Nc2cc(CS(C)(=N)=O)ccn2)ncc1F` (centres unmarked) [VIP152] the remaining binding at 0.1 µM (human kinome [1]) was 93%, the remaining binding at 1 µM (human kinome [2]) was 89% and the remaining binding at 1 µM (human kinome [3]) was 83%. It also gave a remaining binding at 0.1 µM (human kinome [4]) of 73%, a remaining binding at 0.1 µM (human kinome [5]) of 100% and a remaining binding at 0.1 µM (human kinome [6]) of 69%. It also gave a remaining binding at 0.1 µM (human kinome [7]) of 100%, a remaining binding at 0.1 µM (human kinome [8]; PHKG1, 100 nM) of 97% and a remaining binding at 1 µM (human kinome [8]; kinase PHKG1 (Entrez PHKG1), compound concentration 1000 nM) of 96%. The remaining binding at 1 µM (human kinome [9]) was 89%, the remaining binding at 0.1 µM (human kinome [10]) was 100% and the remaining binding at 0.1 µM (human kinome [11]) was 87%. It also gave a remaining binding at 0.1 µM (human kinome [12]) of 89%, a remaining binding at 0.1 µM (human kinome [13]; PIK3CA(E545A), 100 nM) of 71% and a remaining binding at 1 µM (human kinome [13]; kinase PIK3CA(E545A) (Entrez PIK3CA), compound concentration 1000 nM) of 98%. For the same compound, the remaining binding at 1 µM (human kinome [14]) was 49%, the remaining binding at 0.1 µM (human kinome [15]) was 100% and the remaining binding at 0.1 µM (human kinome [16]) was 89%. The remaining binding at 0.1 µM (human kinome [17]) was 100%, the remaining binding at 0.1 µM (human kinome [18]) was 100% and the remaining binding at 1 µM (human kinome [19]) was 67%. It also gave a remaining binding at 0.1 µM (human kinome [20]) of 100%, a remaining binding at 0.1 µM (human kinome [21]) of 100% and a remaining binding at 0.1 µM (human kinome [22]) of 100%. For the same compound, the remaining binding at 0.1 µM (human kinome [23]) was 90%, the remaining binding at 0.1 µM (human kinome [24]) was 100% and the remaining binding at 0.1 µM (human kinome [25]; PAK6, 100 nM) was 100%. The remaining binding at 1 µM (human kinome [25]; kinase PAK6 (Entrez PAK6), compound concentration 1000 nM) was 91%, the remaining binding at 1 µM (human kinome [26]; kinase p38-gamma (Entrez MAPK12), compound concentration 1000 nM) was 100% and the remaining binding at 0.1 µM (human kinome [26]; p38-gamma (Entrez MAPK12), 100 nM) was 76%. For the same compound, the remaining binding at 0.1 µM (human kinome [27]; PIM1, 100 nM) was 100%, the remaining binding at 1 µM (human kinome [27]; kinase PIM1 (Entrez PIM1), compound concentration 1000 nM) was 100% and the remaining binding at 0.1 µM (human kinome [28]) was 100%. It also gave a remaining binding at 0.1 µM (human kinome [29]) of 100% and a remaining binding at 0.1 µM (human kinome [30]) of 100%.
